Data as given in PubChem BioAssay AID330 (DTP/NCI, 2004).
Values joined by “and” are separate entries in the source; they are usually repeats but may differ in a detail not shown here. Equal entries are not always repeated. Toxic doses and inconclusive results are not listed.

Tested on: P388 leukemia ip, CD2F1 mice, survival T/C
Assay: NCI In Vivo Anticancer Drug Screen. Data for tumor model P388 Leukemia (intraperitoneal) in CD2F1 (CDF1) mice
Details: endpoint: median survival time, higher = longer survival
Method in brief: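 Mice carrying the transplanted tumor received test compound or vehicle. Survival was recorded in each group, and the value is the treated-group measurement divided by that of the vehicle-treated control group.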

[1] = dose: 100.0 mg/kg/injection, schedule: Q04DX003 (ip), vehicle: saline with Tween-80
[2] = dose: 200.0 mg/kg/injection, schedule: Q04DX003 (ip), vehicle: saline with Tween-80
[3] = dose: 60.0 mg/kg/injection, schedule: Q01DX005 (ip), vehicle: saline with Tween-80
[4] = dose: 120.0 mg/kg/injection, schedule: Q01DX005 (ip), vehicle: saline with Tween-80
[5] = dose: 50.0 mg/kg/injection, schedule: Q01DX009 (ip), vehicle: saline with Tween-80
[6] = dose: 100.0 mg/kg/injection, schedule: Q01DX009 (ip), vehicle: saline with Tween-80
[7] = dose: 200.0 mg/kg/injection, schedule: Q01DX009 (ip), vehicle: saline with Tween-80

## O=C(COc1ccc(Cl)cc1Cl)Nc1ccccc1F
[1]
  T/C: 100 % of control
[2]
  T/C: 100 % of control
dose: 400.0 mg/kg/injection, schedule: Q04DX003 (ip), vehicle: saline with Tween-80
  T/C: 100 % of control

## O=S(=O)(O)O.[NH2-].[NH2-].[Pt+2]
dose: 1.56 mg/kg/injection, schedule: Q04DX002 (ip), vehicle: saline with Tween-80
  T/C: 112 % of control
dose: 6.25 mg/kg/injection, schedule: Q04DX002 (ip), vehicle: saline with Tween-80
  T/C: 162 % of control
dose: 12.5 mg/kg/injection, schedule: Q04DX002 (ip), vehicle: saline with Tween-80
  T/C: 156 % of control

## O=C1CN(CCCO)CC(=O)N2Cc3ccccc3CN12
dose: 50.0 mg/kg/injection, schedule: Q01DX005 (ip), vehicle: saline
  T/C: 94 % of control
dose: 100.0 mg/kg/injection, schedule: Q01DX005 (ip), vehicle: saline
  T/C: 100 % of control
dose: 200.0 mg/kg/injection, schedule: Q01DX005 (ip), vehicle: saline
  T/C: 99 % of control

## CC1=NS(=O)(=O)NC(C)=C1CC1=C(C)NS(=O)(=O)N=C1C
[3]
  T/C: 99 % of control
[4]
  T/C: 107 % of control
dose: 240.0 mg/kg/injection, schedule: Q01DX005 (ip), vehicle: saline with Tween-80
  T/C: 106 % of control

## O=C1c2c(O)cccc2C(Br)c2cccc(O)c21
dose: 60.0 mg/kg/injection, schedule: Q01DX005 (ip), vehicle: Klucel (hydroxypropylcellulose) (HPC)
  T/C: 107 % of control
dose: 120.0 mg/kg/injection, schedule: Q01DX005 (ip), vehicle: Klucel (hydroxypropylcellulose) (HPC)
  T/C: 114 % of control
dose: 240.0 mg/kg/injection, schedule: Q01DX005 (ip), vehicle: Klucel (hydroxypropylcellulose) (HPC)
  T/C: 98 % of control

## Cc1cc(C)c(C#N)c(SSC(Cl)(Cl)Cl)n1
dose: 50.0 mg/kg/injection, schedule: Q01DX005 (ip), vehicle: saline with Tween-80
  T/C: 96 % of control
dose: 100.0 mg/kg/injection, schedule: Q01DX005 (ip), vehicle: saline with Tween-80
  T/C: 93 % of control
dose: 200.0 mg/kg/injection, schedule: Q01DX005 (ip), vehicle: saline with Tween-80
  T/C: 91 % of control

## S=c1s[nH]c2c1CCC2
[5]
  T/C: 98 % of control
dose: 50.0 mg/kg/injection, schedule: Q01DX009 (ip), vehicle: saline
  T/C: 105 % of control
[6]
  T/C: 101 % of control
dose: 100.0 mg/kg/injection, schedule: Q01DX009 (ip), vehicle: saline
  T/C: 110 % of control
[7]
  T/C: 105 % of control
dose: 200.0 mg/kg/injection, schedule: Q01DX009 (ip), vehicle: saline
  T/C: 120 % of control
dose: 400.0 mg/kg/injection, schedule: Q01DX009 (ip), vehicle: saline with Tween-80
  T/C: 95 % of control

## CN(C)c1ccc(-c2nc3c4ccccc4c4ccccc4c3[nH]2)cc1
[5]
  T/C: 105 % of control
[6]
  T/C: 90 % of control
[7]
  T/C: 87 % of control

## C1=CCC23CCCCC2(C1)CN(/N=N/N1CC24CC=CCC2(CCCC4)C1)C3 (centres undefined)
dose: 6.25 mg/kg/injection, schedule: Q01DX009 (ip), vehicle: Klucel (hydroxypropylcellulose) (HPC)
  T/C: 87 % of control
dose: 12.5 mg/kg/injection, schedule: Q01DX009 (ip), vehicle: Klucel (hydroxypropylcellulose) (HPC)
  T/C: 86 % of control

## O=[N+]([O-])c1cccc(SNc2cccc(Cl)c2)c1
dose: 25.0 mg/kg/injection, schedule: Q01DX009 (ip), vehicle: saline with Tween-80
  T/C: 100 % of control
dose: 25.0 mg/kg/injection, schedule: Q04DX003 (ip), vehicle: saline with Tween-80
  T/C: 90 % of control
[5]
  T/C: 95 % of control
dose: 50.0 mg/kg/injection, schedule: Q04DX003 (ip), vehicle: saline with Tween-80
  T/C: 100 % of control
[6]
  T/C: 104 % of control
[1]
  T/C: 86 % of control
[2]
  T/C: 100 % of control

## CCCCCC(CN(C)C)C(=O)CC(SCC)c1ccc(Cl)c(Cl)c1 (centres undefined)
dose: 6.25 mg/kg/injection, schedule: Q01DX009 (ip), vehicle: water
  T/C: 102 % of control and 113 % of control
dose: 12.5 mg/kg/injection, schedule: Q01DX009 (ip), vehicle: water
  T/C: 107 % of control and 109 % of control and 111 % of control
dose: 25.0 mg/kg/injection, schedule: Q01DX009 (ip), vehicle: water
  T/C: 107 % of control and 120 % of control and 95 % of control
dose: 50.0 mg/kg/injection, schedule: Q01DX009 (ip), vehicle: water
  T/C: 101 % of control and 112 % of control and 115 % of control
dose: 100.0 mg/kg/injection, schedule: Q01DX009 (ip), vehicle: water
  T/C: 108 % of control

## CCN(CC)CCOC(=O)Nc1cc(C)cc(C)c1
[3]
  T/C: 94 % of control
[4]
  T/C: 91 % of control
